The subject of one assay is HCT116 p53+/+ cells. In words: Apoptosis (annexin V FACS, DNA laddering, phase contrast) in HCT116 p53+/+ cells. The class given is cell-based, human.
Another assay has as its system HCT116 p53−/− cells. In words: Apoptosis (annexin V FACS, DNA laddering, phase contrast) in HCT116 p53−/− cells. To be noted: sulindac sulphide 120 μM, 24 and 48 hr. Format: cell-based, human. The method, then:
HCT116 clones were cultured in DMEM with 10% FCS. All the cell clones were cultured with penicillin 100 units ml^−1 and streptomycin 100 μg ml^−1 at 37° C. in 5% CO2 in air. Other human colorectal cancer cells lines, also defective for DNA mismatch repair (see Branch et al., 1995), were:- LoVo and RKO (p53 wild type); DLD1, LS174T, SW48 and HT29 (all p53 mutant). For transfection the cells were trypsinised and sub-cultured into 6 well plates (10 cm^2) without antibiotics, 1.5×10^5 cells per well. Selected 21-nucleotide RNAs were synthesised and BPLC purified (MWG; Germany) and annealed into siRNA duplexes according to the instructions supplied. 24 h after sub-culture the cells were transfected with siRNA formulated into liposomes (Oligofectamine, Life Technologies) according to the manufacturer's instructions. […] The final volume of culture medium was 1.5 ml per well. Cells were harvested for analysis at various times thereafter as indicated in the results. Each experiment with HCT116 cells was carried out four or more times. Transfection efficiencies were established by transfecting with liposomes containing FITC-dextran (Jiang and Milner, 2002). […]
Cell growth curves were determined by cell counting. […] The fixed cells were pelleted, washed in PBS and resuspended in PBS containing 0.1 μg/ml propidium iodide with 200 U/ml RNase A and analysed by FACS. […]

The results in this text go back to patent publication US20060223768A1, “Regulation of gene expression” (priority 2003, published 2006).

For the molecule `O=c1[nH]cc(F)c(=O)[nH]1` [5′ FU, 5-fluorouracil], in the assay on HCT116 p53+/+ cells (HCT116 cells, Zhang et al., 2000 and results not shown), the “apoptosis by agents that activate p53” value is on record as “induced”. As to `CC1=C(CC(=O)O)c2cc(F)ccc2/C1=C\c1ccc([S+](C)[O-])cc1` (stereo not drawn) [Sulindac, sulindac], the “apoptosis induced by treatment with sulindac” value with HCT116 p53+/+ cells (p53+/+ cells, sulindac sulphide 120 μM, 24 and 48 hr) is listed as “induced apoptosis”; in the assay on HCT116 p53−/− cells, “induced apoptosis”.
